Tests used:
HuH7 cell = assay: LDH release from HuH7 cells; format: cell-based, human; conditions: HuH7, 16 h exposure, data not shown
[1] = tested on: high-fat-fed C57BL/6 mice; assay: High-fat-diet C57BL/6 mice, Compound 1 7.5 mg/kg with antagomiR-control or antagomiR-122; format: in vivo
Method: C57BL/6 mice were fed a 50% high fat diet (HFD) for four weeks. The control cohort received three hydrodynamic tail vein injections of a 5 μg antagomiR-control and six i.p injections of saline over three weeks. A second cohort was hydrodynamic tail vein injected with 5 μg antagomiR-122 (the reverse complement that inhibits activity of miR-122) three times and i.p injections of saline six times over three weeks. A third cohort was injected i.p. with Compound 1 (7.5 mg/kg) twice a week plus antagomiR-control once a week over the course of 3 weeks. The final cohort was injected i.p. with Compound 1 (7.5 mg/kg) twice a week plus antagomiR-122 injections once a week over the course of 3 weeks.
High Fat diet fed mice. C57BL/6 male mice were fed for 8 weeks a 50% high fat diet (Envigo, DIETTD150235). All mice were kept in a pathogen-free facility, under a 12 h light/dark cycle. Research on mice was approved by the Hebrew University Institutional Animal Care and Ethics Committee.
Compound 1 and AntagomiR injections to mice. C57BL/6 male mice, 7-8 weeks old, or Sgp130FC, 9-month-old male mice, were injected i.p. with 7.5 mg/kg Compound 1 dissolved in saline and 3% DMSO. Saline was injected as control. Mice were hydrodynamic tail vain injected with antagomiR-122 or antagomiR-control (negative control) (5 μg/mouse in 1.5 ml saline). Mice were sacrificed according to the legend of the figure describing the experimental results and the livers, white adipose and skeletal muscle tissues were frozen in liquid nitrogen or in OCT embedded frozen blocks, for further RNA and histologic analysis. AntagomiRs were obtained from Sigma Aldrich, see Table 3.
Triglycerides and β-hydroxybutyrate quantification. To determine the liver and muscle lipid content, muscle and liver tissues (40-80 mg) were homogenized in 0.5 ml of chloroform: Tris solution (v/v, 1:1), the homogenate was transferred to 1 ml of chloroform: methanol solution (v/v, 2:1) centrifuged at 3000 rpm for 10 min. The organic phase was mixed with 5% Triton X100 in chloroform, dried and re-dissolved in water. After lipid extraction, TG concentration in samples was measured with Triglyceride Quantification Kit (BioVision), according to the manufactures instructions. β-hydroxybutyrate was determined utilizing commercial colorimetric kits (BioVision) directly from plasma samples.
In an effort to determine whether the mechanism of action of miR-122 and Compound 1 are aligned at the same pathway, an experiment was designed in which both molecules, together and each separately, were administered. In this study, mice were fed with a 50% HFD and therapy was initiated 4 weeks after the animals were already on a diet, to establish NASH prior to treatment. Therapies (antagomiRs given once a week, due to a prolonged half time, and RS twice weekly, due to a plasma t/2 of 2.7 hrs) were initiated after 4 weeks and given for 3 weeks. The mice were weighed from week 3 and therapies initiated a week later. […] The liver was further analyzed to assess lipotoxicity. […] A surrogate marker for energy expenditure, β-hydroxybutyrate, was also measured. A reduction in energy expenditure is associated with reduced miR-122, and energy expenditure increased upon treating with Compound 1.
Male C57BL/6J mice, 7 to 8 weeks old, were housed randomly in standard cages and were fed a HFD, or atherogenic diet (consisting 1% Chol and 0.5% cholic acid, see also Table 3). All mice had free access to water during the experimental period. During the feeding period body weight was monitored every 3 days. In the HFD experiment, after 4 or 6 weeks, the resultant obese mice were treated with antagomiR-122 ([…] once a week for 3 weeks), or i.p. injected with Compound 1 (RORα agonist, 7.5 mg/kg twice a week for 3 weeks; or 15 mg/kg 3 times a week for 3 weeks). The obese control (HFD) group was administered only saline with DMSO and antagomiR-control. […]

Structure (SMILES): O=C1Nc2cc(C(=O)N3CCC(Cc4ccccc4)CC3)ccc2Nc2ccccc21 [Compound 1]
- toxicity to the cells as measured by LDH release (HuH7 cell): no apparent toxicity
- body weight, co-administration with antagomir-122 ([1]; 7.5 mg/kg i.p. twice a week plus antagomiR-122 once a week, 3 weeks): did not decrease
- body weight at the end of the experiment compared to the control group ([1]; 7.5 mg/kg i.p. twice a week plus antagomiR-control, 3 weeks): statistically lower
- secretion of miR-122 (plasma) ([1]; 7.5 mg/kg i.p. twice a week, 3 weeks): enhanced
- TG content in the muscle ([1]; 50% HFD, treatment for 3 weeks): decreased
- energy expenditure (surrogate marker β-hydroxybutyrate) ([1]; 50% HFD, treatment for 3 weeks): increased
- hepatic lipid droplets and TG content ([1]; 50% HFD, treatment for 3 weeks): reduced

From patent publication US12318393B2, “Modulators of orphan nuclear receptors for NASH and other metabolic disorders” (Emory University, priority 2018, dated 2025)
